Measured values from patent publication US4182878A, “1-Phenyl-1H-pyrazolo[3,4-d]pyrimidine-4-carbonitrile and a method for its preparation” (The Lion Dentrifice Co., Ltd., priority 1977, dated 1980).

Key:
Ehrlich's tumor cells = test: Carcinostatic activity in ddY mice subcutaneously inoculated with Ehrlich's tumor cells; assay type: in vivo; conditions: for Weight of tumor tissues in the sample group (S) / Ratio of S/C: 14 days after inoculation; for Weight of tumor tissues in the sample group (S) / Toxicity, ratio of died mice / Ratio of S/C: 1 mg daily intraabdominal injection; for Weight of tumor tissues in the sample group (S) / Toxicity, ratio of died mice: dosage period 10 days (I, IV) or 7 days (XI, VI, X); for Evaluation: based on the ratios of S/C in percentages; for effectiveness in preventing the multiplication of cancer cells: conclusion in words from the table; for Toxicity, ratio of died mice: number of mice died in the group during 14 days after transplantation; for Ratio of S/C: tumor weight sample/control, control 4.44 ± 1.02 g (I, IV), 1.36 ± 0.15 g (XI, VI), 1.52 ± 0.27 g (X)
Method: In addition to the foregoing examples of preparation processes, Compounds I, IV, VI, X and XI were evaluated with respect to their carcinostatic activities and acute toxicities by animal tests as follows.
Each of mice (ddY) having a body weight of about 25 g was subcutaneously innoculated with 3×10^6 of Ehrlich's tumor cells, and the thus inoculated mice were divided into 5 "sample" groups and 3 "control" groups, each group consisting of five or four mice. The thus treated mice belonging to the control groups were observed over a period of 14 days. On the other hand, each mouse belonging to the sample groups was given a 1 mg dose of Compounds I, IV, VI, XI or X by injection into the abdominal coelom every day during the period beginning after 24 hours from the innoculation of the tumor cells, and as indicated in the table below.
At the end of the 14-day period following the above-mentioned innoculation of the tumor cells, the tumor tissues of each mouse were taken out and weighed, so that comparison could be made between the weights of the tumor tissues taken from the sample groups and the control groups. Further in the table, "Toxicity" is expressed by the number of mice died in the group during the 14-day period following the transplantation of the cancer cells and "Evaluation" is based on the ratios of S/C in percentages and expressed by "++" when the percentage is 0-25%, "+" when the percentage is 26-50%, and "±" when the percentage is 51-75%.

[1] = Acute toxicity, LD50 by oral administration; conditions: in vivo, mouse
[2] = Stability of the compound; assay type: physicochemical

O=C(O)c1ncnc2c1cnn2-c1ccccc1 [Compound X, 1-phenyl-1H-pyrazolo[3,4-d]pyrimidine-4-carboxylic acid]
Weight of tumor tissues in the sample group (S) (Ehrlich's tumor cells): 1.14 ± 0.27 g
Evaluation (Ehrlich's tumor cells): ± (the percentage is 51-75%)
effectiveness in preventing the multiplication of cancer cells (Ehrlich's tumor cells): effective in preventing the multiplication of cancer cells
Toxicity, ratio of died mice (Ehrlich's tumor cells): 0/4
Ratio of S/C (Ehrlich's tumor cells): 75.0%

N#Cc1ncnc2c1cnn2-c1ccccc1 [Compound I, 1-phenyl-1H-pyrazolo[3,4-d]pyrimidine-4-carbonitrile]
Weight of tumor tissues in the sample group (S) (Ehrlich's tumor cells): 0.43 ± 0.40 g
Evaluation (Ehrlich's tumor cells): ++ (the percentage is 0-25%)
effectiveness in preventing the multiplication of cancer cells (Ehrlich's tumor cells): very effective in preventing the multiplication of cancer cells
Toxicity, ratio of died mice (Ehrlich's tumor cells): 1/5
Ratio of S/C (Ehrlich's tumor cells): 9.7%
LD50 [1]: 100 mg/kg
stability [2]: stable

NC(=NO)c1ncnc2c1cnn2-c1ccccc1 [Compound VI, 1-phenyl-1H-pyrazolo[3,4-d]pyrimidine-4-carboxamidoxime]
Weight of tumor tissues in the sample group (S) (Ehrlich's tumor cells): 0.43 ± 0.15 g
Evaluation (Ehrlich's tumor cells): + (the percentage is 26-50%)
effectiveness in preventing the multiplication of cancer cells (Ehrlich's tumor cells): effective in preventing the multiplication of cancer cells
Toxicity, ratio of died mice (Ehrlich's tumor cells): 0/4
Ratio of S/C (Ehrlich's tumor cells): 31.6%

NC(=S)c1ncnc2c1cnn2-c1ccccc1 [Compound XI, 1-phenyl-1H-pyrazolo[3,4-d]pyrimidine-4-thiocarboxamide]
Weight of tumor tissues in the sample group (S) (Ehrlich's tumor cells): 0.63 ± 0.08 g
Evaluation (Ehrlich's tumor cells): + (the percentage is 26-50%)
effectiveness in preventing the multiplication of cancer cells (Ehrlich's tumor cells): effective in preventing the multiplication of cancer cells
Toxicity, ratio of died mice (Ehrlich's tumor cells): 0/4
Ratio of S/C (Ehrlich's tumor cells): 46.3%

NC(=O)c1ncnc2c1cnn2-c1ccccc1 [Compound IV, 1-phenyl-1H-pyrazolo[3,4-d]pyrimidine-4-carboxamide]
Weight of tumor tissues in the sample group (S) (Ehrlich's tumor cells): 3.05 ± 1.40 g
Evaluation (Ehrlich's tumor cells): ± (the percentage is 51-75%)
effectiveness in preventing the multiplication of cancer cells (Ehrlich's tumor cells): effective in preventing the multiplication of cancer cells
Toxicity, ratio of died mice (Ehrlich's tumor cells): 0/5
Ratio of S/C (Ehrlich's tumor cells): 68.7%
